Test: xn = mol fraction of the nth substance listed
Details: Gas, Frequency=0.002 MHz, Spherical resonator

[He] [helium] + C
Details	speed of sound [m/s]
325 K, 5510.1 kPa, x2 = 0.95	474.34
325 K, 6484.7 kPa, x2 = 0.8999	489.68
325 K, 6498.1 kPa, x2 = 0.95	475.29
325 K, 7001.3 kPa, x2 = 0.95	475.96
325 K, 7483.3 kPa, x2 = 0.8999	491.54
325 K, 7498.5 kPa, x2 = 0.95	476.75
325 K, 8497.4 kPa, x2 = 0.8999	493.86
325 K, 8512.5 kPa, x2 = 0.95	478.75
325 K, 9494.2 kPa, x2 = 0.8999	496.64
325 K, 9503.9 kPa, x2 = 0.95	481.25
325 K, 10493 kPa, x2 = 0.8999	499.87
325 K, 10502 kPa, x2 = 0.95	484.31
325 K, 11469 kPa, x2 = 0.95	487.82
325 K, 11475 kPa, x2 = 0.8999	503.57
325 K, 12500 kPa, x2 = 0.8999	507.85
325 K, 12517 kPa, x2 = 0.95	492.25
325 K, 13295 kPa, x2 = 0.95	495.91
325 K, 13503 kPa, x2 = 0.8999	512.52
325 K, 14011 kPa, x2 = 0.95	499.58
325 K, 14493 kPa, x2 = 0.8999	517.56
325 K, 14716 kPa, x2 = 0.95	503.46
325 K, 15294 kPa, x2 = 0.8999	521.98
325 K, 15309 kPa, x2 = 0.95	506.94
325 K, 15995 kPa, x2 = 0.8999	526.06
325 K, 16003 kPa, x2 = 0.95	511.23
325 K, 16485 kPa, x2 = 0.8999	529.05
325 K, 16552 kPa, x2 = 0.95	514.81
325 K, 16992 kPa, x2 = 0.8999	532.23
325 K, 17002 kPa, x2 = 0.95	517.85
325 K, 17513 kPa, x2 = 0.95	521.43
325 K, 17520 kPa, x2 = 0.8999	535.66
325 K, 17961 kPa, x2 = 0.95	524.66
325 K, 17995 kPa, x2 = 0.8999	538.81
325 K, 18490 kPa, x2 = 0.8999	542.22
325 K, 18521 kPa, x2 = 0.95	528.85
325 K, 18993 kPa, x2 = 0.8999	545.76
325 K, 19024 kPa, x2 = 0.95	532.71
325 K, 19504 kPa, x2 = 0.8999	549.41
325 K, 19536 kPa, x2 = 0.95	536.75
325 K, 19906 kPa, x2 = 0.8999	552.38
350 K, 476.77 kPa, x2 = 0.95	491.9
350 K, 489.4 kPa, x2 = 0.8999	503.05
350 K, 985.81 kPa, x2 = 0.95	491.68
350 K, 990 kPa, x2 = 0.8999	503.09
350 K, 1981.5 kPa, x2 = 0.8999	503.39
350 K, 1988.5 kPa, x2 = 0.95	491.41
350 K, 3476.8 kPa, x2 = 0.8999	504.31
350 K, 3557.7 kPa, x2 = 0.95	491.72
350 K, 4993.3 kPa, x2 = 0.8999	506.12
350 K, 5005.4 kPa, x2 = 0.95	492.68
350 K, 6484 kPa, x2 = 0.8999	508.51
350 K, 6520.9 kPa, x2 = 0.95	494.52
350 K, 7487.6 kPa, x2 = 0.8999	510.6
350 K, 8493.7 kPa, x2 = 0.8999	513.01
350 K, 8537.3 kPa, x2 = 0.95	498.36
350 K, 9502.1 kPa, x2 = 0.8999	515.83
350 K, 10503 kPa, x2 = 0.8999	518.95
350 K, 10534 kPa, x2 = 0.95	503.83
350 K, 11996 kPa, x2 = 0.8999	524.33
350 K, 12032 kPa, x2 = 0.95	509.02
350 K, 13418 kPa, x2 = 0.95	514.87
350 K, 13498 kPa, x2 = 0.8999	530.47
350 K, 14498 kPa, x2 = 0.8999	535.04
350 K, 14519 kPa, x2 = 0.95	519.93
350 K, 15505 kPa, x2 = 0.8999	539.96
350 K, 15599 kPa, x2 = 0.95	525.36
350 K, 16500 kPa, x2 = 0.8999	545.16
350 K, 16626 kPa, x2 = 0.95	530.93
350 K, 17495 kPa, x2 = 0.8999	550.65
350 K, 17512 kPa, x2 = 0.95	536.05
350 K, 18437 kPa, x2 = 0.95	541.71
350 K, 18509 kPa, x2 = 0.8999	556.57
350 K, 19237 kPa, x2 = 0.95	546.81
350 K, 19509 kPa, x2 = 0.8999	562.67
350 K, 20020 kPa, x2 = 0.95	552
350 K, 20352 kPa, x2 = 0.8999	568.05
350 K, 20966 kPa, x2 = 0.95	558.46
375 K, 480.89 kPa, x2 = 0.8999	517.61
375 K, 508.08 kPa, x2 = 0.95	506.89
375 K, 970.3 kPa, x2 = 0.95	506.94
375 K, 974.52 kPa, x2 = 0.8999	518
375 K, 1977.8 kPa, x2 = 0.8999	518.72
375 K, 1994.9 kPa, x2 = 0.95	507.23
375 K, 2982.4 kPa, x2 = 0.8999	519.78
375 K, 3486.1 kPa, x2 = 0.95	508.11
375 K, 4474.8 kPa, x2 = 0.8999	521.69
375 K, 4994.3 kPa, x2 = 0.95	509.68
375 K, 5993.9 kPa, x2 = 0.8999	524.5
375 K, 6507.4 kPa, x2 = 0.95	511.94
375 K, 7482.9 kPa, x2 = 0.8999	527.66
375 K, 8485.9 kPa, x2 = 0.8999	530.3
375 K, 8534.5 kPa, x2 = 0.95	516.24
375 K, 9494.9 kPa, x2 = 0.8999	533.16
375 K, 10491 kPa, x2 = 0.8999	536.22
375 K, 10526 kPa, x2 = 0.95	521.64
375 K, 11482 kPa, x2 = 0.8999	539.61
375 K, 12041 kPa, x2 = 0.95	526.64
375 K, 12500 kPa, x2 = 0.8999	543.46
375 K, 13432 kPa, x2 = 0.95	531.87
375 K, 13465 kPa, x2 = 0.8999	547.3
375 K, 14475 kPa, x2 = 0.8999	551.75
375 K, 14510 kPa, x2 = 0.95	536.35
375 K, 15493 kPa, x2 = 0.8999	556.41
375 K, 15609 kPa, x2 = 0.95	541.3
375 K, 16440 kPa, x2 = 0.8999	560.93
375 K, 16573 kPa, x2 = 0.95	545.93
375 K, 17490 kPa, x2 = 0.8999	566.34
375 K, 17518 kPa, x2 = 0.95	550.72
375 K, 18172 kPa, x2 = 0.8999	569.92
375 K, 18322 kPa, x2 = 0.95	555.02
375 K, 18705 kPa, x2 = 0.8999	572.84
375 K, 19198 kPa, x2 = 0.95	559.9

— the NIST ThermoML archive (doi:10.1016/j.jct.2019.07.011)
